Measurements published in patent US12522595B2, “Bicyclic ether O-glycoprotein-2-acetamido-2-deoxy-3-D-glucopyranosidase inhibitors” (BIOGEN MA INC., priority 2019, dated 2026).

Each molecule was assayed against T1, Recombinant full length human OGA enzyme (Homo sapiens, UniProt O60502) (assay: OGA enzyme inhibition biochemical assay). Settings: 1 nM OGA, 100 μM 4-MUGlcNAc (Km), pH 6.4, 90 minutes at room temperature, 10-point dose-response from 20 μM.
T1 construct: Recombinant full length human OGA enzyme was purchased from Origene; purchased Origene
T1 sequence (O60502 1-916): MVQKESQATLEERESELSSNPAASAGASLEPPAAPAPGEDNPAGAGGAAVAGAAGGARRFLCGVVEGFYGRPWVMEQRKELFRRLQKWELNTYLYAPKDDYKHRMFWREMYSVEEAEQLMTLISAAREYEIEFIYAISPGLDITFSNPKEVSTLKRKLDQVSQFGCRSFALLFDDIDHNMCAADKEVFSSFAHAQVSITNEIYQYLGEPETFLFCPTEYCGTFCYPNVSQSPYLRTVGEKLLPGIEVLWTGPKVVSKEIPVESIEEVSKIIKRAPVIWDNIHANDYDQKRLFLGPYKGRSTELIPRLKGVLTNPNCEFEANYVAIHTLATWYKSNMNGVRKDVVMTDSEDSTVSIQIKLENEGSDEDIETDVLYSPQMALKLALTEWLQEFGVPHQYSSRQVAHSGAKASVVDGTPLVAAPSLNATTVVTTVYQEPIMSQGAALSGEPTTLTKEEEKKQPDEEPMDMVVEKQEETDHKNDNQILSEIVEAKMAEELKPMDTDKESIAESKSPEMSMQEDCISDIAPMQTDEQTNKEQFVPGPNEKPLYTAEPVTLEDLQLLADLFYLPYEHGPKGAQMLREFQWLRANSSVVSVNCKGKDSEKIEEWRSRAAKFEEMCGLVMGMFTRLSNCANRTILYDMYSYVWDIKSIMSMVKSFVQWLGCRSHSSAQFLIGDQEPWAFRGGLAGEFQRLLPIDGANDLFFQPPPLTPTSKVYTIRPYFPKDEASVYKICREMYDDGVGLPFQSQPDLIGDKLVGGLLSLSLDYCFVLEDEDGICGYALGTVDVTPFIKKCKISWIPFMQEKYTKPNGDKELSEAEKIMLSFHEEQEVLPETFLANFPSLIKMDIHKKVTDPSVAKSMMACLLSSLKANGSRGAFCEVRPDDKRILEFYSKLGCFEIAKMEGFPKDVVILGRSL
Protocol: N-(5-(((2S,4R)-4-([1,2,4]triazolo[4,3-a]pyrazin-3-yloxy)-2-methylpyrrolidin-1-yl)methyl)-4-fluorothiazol-2-yl)acetamide: The title compound was prepared in an analogous manner as Example 172 from 3-bromo-[1,2,4]triazolo[4,3-a]pyrazine. LCMS (ESI): [M+H] 392. ^1H NMR (600 MHz, CHLOROFORM-d) δ 10.75 (br s, 1H), 9.04 (s, 1H), 9.03 (s, 1H), 7.24 (s, 1H), 4.99-5.06 (m, 1H), 4.01 (d, J=14.49 Hz, 1H), 3.64 (d, J=14.67 Hz, 1H), 3.40 (d, J=11.55 Hz, 1H), 2.75 (dd, J=5.78, 11.46 Hz, 1H), 2.61-2.72 (m, 2H), 2.32 (s, 4H), 1.84-1.92 (m, 1H), 1.30 (d, J=5.87 Hz, 4H). ^19F NMR (565 MHz, CHLOROFORM-d) 6-115.92 (br s, 1F). OGA Enzyme Inhibition Biochemical Assay
Recombinant full length human OGA enzyme was purchased from Origene. 4-MUGlCNAc substrate was purchased from Sigma. All other reagents were purchased from Sigma or Fisher. Assay buffer consists of the McIlvaine buffer system, pH 6.4 (0.2M Na2HPO4 mixed with 0.1M citric acid) and 0.01% BSA. Reactions consist of 1 nM OGA, 100 μM 4-MUGlcNAc (Km), and compound in a final volume of 10 μl. Reactions were incubated for 90 minutes at room temperature and quenched with 40 μl of 3M glycine, pH 10 and read on a Perkin Elmer Envision plate reader (Ex: 355 nm/Em: 460 nm). Compounds were tested with a 10-point dose-response starting from 20 μM with a 4-fold dilution. Data, as presented in Table 1 below, was fit using GraphPad Prism using a 4-parameter fit with variable slope.

IC50 [nM]	SMILES
< 1	CC(=O)Nc1nc(F)c(CN2C[C@H](Oc3cnc4nc(C)oc4c3)C[C@@H]2C)s1 [Example 169, N-(4-Fluoro-5-(((2S,4R)-2-methyl-4-((2-methyloxazolo[4,5-b]pyridin-6-yl)oxy)pyrrolidin-1-yl)methyl)thiazol-2-yl)acetamide]
< 1	CC(=O)Nc1nc(F)c(CN2C[C@H](Oc3ccn4cnnc4c3)C[C@@H]2C)s1 [Example 146, N-(5-(((2S,4R)-4-([1,2,4]triazolo[4,3-a]pyridin-7-yloxy)-2-methylpyrrolidin-1-yl)methyl)-4-fluorothiazol-2-yl)acetamide]
< 1	CC(=O)Nc1nc(F)c(CN2C[C@H](Oc3ccn4ncnc4c3)C[C@@H]2C)s1 [Example 107, N-(5-(((2S,4R)-4-([1,2,4]triazolo[1,5-a]pyridin-7-yloxy)-2-methylpyrrolidin-1-yl)methyl)-4-fluorothiazol-2-yl)acetamide]
< 1	CC(=O)Nc1nc(F)c(CN2C[C@H](Oc3ccn4nc(C)nc4c3)C[C@@H]2C)s1 [Example 173, N-(4-fluoro-5-(((2S,4R)-2-methyl-4-((2-methyl-[1,2,4]triazolo[1,5-a]pyridin-7-yl)oxy)pyrrolidin-1-yl)methyl)thiazol-2-yl)acetamide]
3.8	CC(=O)Nc1nc(F)c(CN2C[C@H](Oc3ccnc4ccnn34)C[C@@H]2C)s1 [Example 104, N-(4-fluoro-5-(((2S,4R)-2-methyl-4-(pyrazolo[1,5-a]pyrimidin-7-yloxy)pyrrolidin-1-yl)methyl)thiazol-2-yl)acetamide]
< 1	CC(=O)Nc1nc(F)c(CN2C[C@H](Oc3nccc4c3cnn4C)C[C@@H]2C)s1 [Example 138, N-(4-fluoro-5-(((2S,4R)-2-methyl-4-((1-methyl-1H-pyrazolo[4,3-c]pyridin-4-yl)oxy)pyrrolidin-1-yl)methyl)thiazol-2-yl)acetamide]
< 1	CC(=O)Nc1nc(F)c(CN2C[C@H](Oc3ncnc4cccc(F)c34)C[C@@H]2C)s1 [Example 124, N-(4-fluoro-5-(((2S,4R)-4-((5-fluoroquinazolin-4-yl)oxy)-2-methylpyrrolidin-1-yl)methyl)thiazol-2-yl)acetamide]
< 1	CC(=O)Nc1nc(F)c(CN2C[C@H](Oc3nccn4ccnc34)C[C@@H]2C)s1 [Example 96, N-(4-fluoro-5-(((2S,4R)-4-(imidazo[1,2-a]pyrazin-8-yloxy)-2-methylpyrrolidin-1-yl)methyl)thiazol-2-yl)acetamide]
< 1	COc1cc2cnc(O[C@@H]3C[C@H](C)N(Cc4sc(NC(C)=O)nc4F)C3)cc2cc1F [Example 130, N-(4-fluoro-5-(((2S,4R)-4-((6-fluoro-7-methoxyisoquinolin-3-yl)oxy)-2-methylpyrrolidin-1-yl)methyl)thiazol-2-yl)acetamide]
< 1	CC(=O)Nc1nc(F)c(CN2C[C@H](Oc3nncc4cc(F)ccc34)C[C@@H]2C)s1 [Example 133, N-(4-fluoro-5-(((2S,4R)-4-((6-fluorophthalazin-1-yl)oxy)-2-methylpyrrolidin-1-yl)methyl)thiazol-2-yl)acetamide]

The next lines start with the molecule.

SMILES	IC50 [nM]
CC(=O)Nc1nc(F)c(CN2C[C@H](Oc3cccc4nn(C)cc34)C[C@@H]2C)s1 [Example 84, N-(4-fluoro-5-(((2S,4R)-2-methyl-4-((2-methyl-2H-indazol-4-yl)oxy)pyrrolidin-1-yl)methyl)thiazol-2-yl)acetamide]	< 1
CC(=O)Nc1ncc(CN2C[C@H](Oc3ccc4ccc(F)cc4n3)C[C@@H]2C)s1 [Example 6, N-(5-(((2S,4R)-4-((7-fluoroquinolin-2-yl)oxy)-2-methylpyrrolidin-1-yl)methyl)thiazol-2-yl)acetamide]	< 1
CC(=O)Nc1ncc(CN2C[C@H](Oc3ncc4c(n3)CCCC4)C[C@@H]2C)s1 [Example 10, N-(5-(((2S,4R)-2-methyl-4-((5,6,7,8-tetrahydroquinazolin-2-yl)oxy)pyrrolidin-1-yl)methyl)thiazol-2-yl)acetamide]	< 1
CC(=O)Nc1ncc(CN2C[C@H](Oc3nccc4ccsc34)C[C@@H]2C)s1 [Example 11, N-(5-(((2S,4R)-2-methyl-4-(thieno[2,3-c]pyridin-7-yloxy)pyrrolidin-1-yl)methyl)thiazol-2-yl)acetamide]	< 1
COc1ccc2ccc(O[C@@H]3C[C@H](C)N(Cc4cnc(NC(C)=O)s4)C3)nc2n1 [Example 166, N-(5-(((2S,4R)-4-((7-methoxy-1,8-naphthyridin-2-yl)oxy)-2-methylpyrrolidin-1-yl)methyl)thiazol-2-yl)acetamide]	< 1
CC(=O)Nc1ncc(CN2C[C@H](Oc3ncnc4cc(F)c(F)cc34)C[C@@H]2C)s1 [Example 35, N-(5-(((2S,4R)-4-((6,7-difluoroquinazolin-4-yl)oxy)-2-methylpyrrolidin-1-yl)methyl)thiazol-2-yl)acetamide]	110
COc1ccc2ccc(O[C@@H]3C[C@H](C)N(Cc4cnc(NC(C)=O)s4)C3)nc2c1 [Example 79, N-(5-(((2S,4R)-4-((7-methoxyquinolin-2-yl)oxy)-2-methylpyrrolidin-1-yl)methyl)thiazol-2-yl)acetamide]	< 1
CC(=O)Nc1ncc(CN2C[C@H](Oc3cc4cn(C)nc4cn3)C[C@@H]2C)s1 [Example 87, N-(5-(((2S,4R)-2-methyl-4-((2-methyl-2H-pyrazolo[3,4-c]pyridin-5-yl)oxy)pyrrolidin-1-yl)methyl)thiazol-2-yl)acetamide]	< 1
CC(=O)Nc1nc(F)c(CN2C[C@H](Oc3nccn4cnnc34)C[C@@H]2C)s1 [Example 101, N-(5-(((2S,4R)-4-([1,2,4]triazolo[4,3-a]pyrazin-8-yloxy)-2-methylpyrrolidin-1-yl)methyl)-4-fluorothiazol-2-yl)acetamide]	< 1
CC(=O)Nc1ncc(CN2C[C@H](Oc3nccc4occc34)C[C@@H]2C)s1 [Example 22, N-(5-(((2S,4R)-4-(furo[3,2-c]pyridin-4-yloxy)-2-methylpyrrolidin-1-yl)methyl)thiazol-2-yl)acetamide]	2.1
CC(=O)Nc1ncc(CN2C[C@H](Oc3ccc4c(Cl)nccc4c3)C[C@@H]2C)s1 [Example 1, N-(5-(((2S,4R)-4-((1-chloroisoquinolin-6-yl)oxy)-2-methylpyrrolidin-1-yl)methyl)thiazol-2-yl)acetamide]	< 1
CC(=O)Nc1ncc(CN2C[C@H](Oc3nccc4oc(C(N)=O)cc34)C[C@@H]2C)s1 [Example 25, 4-(((3R,5S)-1-((2-acetamidothiazol-5-yl)methyl)-5-methylpyrrolidin-3-yl)oxy)furo[3,2-c]pyridine-2-carboxamide]	2.8
CC(=O)Nc1ncc(CN2C[C@H](Oc3ccc4ncoc4c3)C[C@@H]2C)s1 [Example 45, N-(5-(((2S,4R)-4-(benzo[d]oxazol-6-yloxy)-2-methylpyrrolidin-1-yl)methyl)thiazol-2-yl)acetamide]	< 1
CC(=O)Nc1ncc(CN2C[C@H](Oc3ccc4ccn(C)c4n3)C[C@@H]2C)s1 [Example 162, N-(5-(((2S,4R)-2-methyl-4-((1-methyl-1H-pyrrolo[2,3-b]pyridin-6-yl)oxy)pyrrolidin-1-yl)methyl)thiazol-2-yl)acetamide]	< 1
CC(=O)Nc1nc(F)c(CN2C[C@H](Oc3cccc4nccn34)C[C@@H]2C)s1 [Example 64, N-(4-fluoro-5-(((2S,4R)-4-(imidazo[1,2-a]pyridin-5-yloxy)-2-methylpyrrolidin-1-yl)methyl)thiazol-2-yl)acetamide]	< 1
